Reference: the NIST ThermoML archive (doi:10.1016/j.jct.2009.06.022)
Numbers after ± are expanded uncertainties.

What was measured:
[1] = molar enthalpy of vaporization or sublimation; conditions: 298.15 K; Crystal; Static calorimetry
[2] = Molar enthalpy of transition or fusion; conditions: Crystal; DSC
[3] = Crystal; DTA

Row | molar enthalpy [1] [kcal/mol] | Molar enthalpy of transition or fusion [2] [kcal/mol] | Normal melting temperature [3] [°C] | SMILES
1 | 25.6 ± 1.1 | 5.03 ± 0.139 | 76.34 ± 0.44 | O=C1CC(c2ccccc2)Oc2ccccc21 (stereo unspecified) [2,3-dihydroflavone]
2 | 25.9 ± 0.813 | 4.86 ± 0.122 | 96.74 ± 0.44 | O=c1cc(-c2ccccc2)oc2ccccc12 [flavone]
